In US12600757B2, “Peptides inhibiting gamma-c-cytokine activity and methods of use” (Bioniz, LLC, priority 2017, dated 2026):
Bridge positions count the residues as written; N and C are the ends. Square brackets hold non-standard residues; d marks the D form. Ends that are not written are not given here. Peptide text beside a SMILES is read from it. R5 = C=CCCC[C@@](C)(N)C(=O)O; S5 = C=CCCC[C@](C)(N)C(=O)O

Assays:
[1] = Time-course protease stability in simulated intestinal fluid (RP-HPLC); settings: simulated intestinal fluid (USP), 37° C., over 60 minutes
Text: To evaluate the gastric stability of the custom peptide derivatives containing one or more intra-peptide hydrocarbon linker elements of the present embodiments a time-course protease stability measurement of unmodified SEQ ID NO: 3 in comparison with a representative custom peptide derivative of SEQ ID NO: 3 containing one hydrocarbon linker element (SEQ ID NO: 39), and another representative custom peptide derivative of SEQ ID NO: 3 containing two hydrocarbon linker elements and certain amino acid positions in the (D) stereochemical configuration (SEQ ID NO: 57) was carried out in simulated intestinal fluid over 60 minutes. […] Simulated intestinal fluid was made according to USP specifications (Test Solutions, United States Pharmacopeia 36). 50 μL of 10 mg/mL peptide was mixed with 450 μL pre-warmed (37° C.) simulated intestinal fluid, and aliquots of the reaction mixture were removed at prescribed time intervals over a time-period of 60 minutes and stopped with 0.1 M HCl. Peptide stability was measured by reversed phase HPLC on a Phenomenex Aeris Peptide column (4.6×250 mm) with settings: 3.6 μm particle size, non-porous; 5.0 μL injection, 0.5 mL/min; mobile phase A: 25% Acetonitrile with 0.1% TFA; mobile phase B: 100% Acetonitrile with 0.1% TFA. The multi-step buffer gradient goes from 100% A to 100% B over 26 minutes. […]

IL-2 = test: NK92 cell proliferation assay (WST-1), IL-2 stimulated; format: cell-based, human; settings: NK92 cells, 2 days
Text: (§1) For each of the six γc-cytokines, indicator cell lines: NK92, a human NK cell line NK92 available by American Type Culture Collection (ATCC) (catalog #CRL-2407), CTLL-2, a murine CD8 T cells line available from ATCC, and PT-18, a murine mast cell line and its subclone PT-18β, is transfected with human IL-2Rβ gene to make the cells responsive to IL-2 and IL-15 (Tagaya et al., 1996, EMBO J. 15:4928-39), and is used to quantitatively determine the γc-cytokine's growth-promoting activity (See Current protocols in Immunology from Wiley and Sons for a methodological reference).
(§2) Once the appropriate doses of the cytokine that yield the 50-70% and 95% maximum response from the indicator cell line is determined, various concentrations (ranging from 1 μM to 10 μM) of the purified or synthesized custom derivative peptide is added to each well containing the cytokine and indicator cells. The reduction in light absorbance at 450 nm is used as an indicator of inhibition of cytokine-stimulated cellular proliferation.
(§3) The human NK cell line NK92 was used for a dose response of SEQ ID NO: 3 against IL-2, IL-15, and IL-21. Cells were cultured with 0.5 nM of recombinant IL-2 in RPMI 10% fetal Calf Serum. […] The growth-responses of the cells were determined 2 days after the introduction of SEQ ID NO: 3 and the cytokine using the WST-1 assay. […]

IL-15 = test: NK92 cell proliferation assay (WST-1), IL-15 stimulated; format: cell-based, human; settings: NK92 cells, 2 days
Text: as §1, §2, §3

IL-21 = test: NK92 cell proliferation assay (WST-1), IL-21 stimulated; format: cell-based, human; settings: NK92 cells, 2 days
Text: as §1, §2, §3

IL-4 = test: NK92 cell proliferation assay (WST-1), IL-4 stimulated; format: cell-based, human; settings: NK92 cells, peptide 2.5 μM (70% purity), 2 days
Text: as §1, §2
(§4) The human NK cell line NK92 was used to determine the γc-cytokine inhibitory specificity of SEQ ID NO: 3. In this assay the cells were cultured with 0.5 nM of recombinant IL-2 in RPMI 10% fetal Calf Serum. […] The growth-responses of the cells were determined 2 days after the introduction of SEQ ID NO: 3 and the cytokine using the WST-1 assay. […]

IL-9 = test: NK92 cell proliferation assay (WST-1), IL-9 stimulated; format: cell-based, human; settings: NK92 cells, peptide 2.5 μM (70% purity), 2 days
Text: as §1, §2, §4

[2] = tested on: IL-15 mediated phosphorylation of STAT-5; test: IL-15 mediated phosphorylation of STAT5 in CTLL-2 cells (immunoblot); format: cell-based, murine; settings: anti-phospho-STAT5 immunoblot
Text: (§5) Similar to the IL-15 induced tyrosine phosphorylation of STAT5 via Jak3, it is well known in the art that Jak-STAT signaling mediated via IL-21 receptor binding preferentially induces Jak-mediated tyrosine phosphorylation of STAT3 (Habib et al. 2003 J Allergy Clin Immunol. 112:1033-45). In accordance with these published data, the ability of SEQ ID NO: 3 to inhibit the tyrosine phosphorylation of the STAT5 molecule by IL-2 or IL-15 in CTLL-2 cells, and the ability of SEQ ID NO: 3 to inhibit the tyrosine phosphorylation of the STAT3 molecule by IL-21 in NK92 cells was examined (results shown in FIG. 4B).
(§6) CTLL-2 cells were stimulated by IL-2 or IL-15 in the presence or absence of SEQ ID NO: 3. CTLL-2 cells were also stimulated by IL-2 or IL-15 in the presence of anti-IL-2 antibody (R & D Systems, Catalog #MAB202, Minneapolis, MN) or anti-IL-15 antibody (R & D Systems, Catalog #MAB247, Minneapolis, MN) as positive controls. NK92 cells were stimulated by IL-21 in the presence or absence of SEQ ID NO: 3. NK92 cells were also stimulated by IL-21 in the presence of anti-IL-21 antibody (Mabtech, Catalog #3540-1-250, Cincinnati, OH) as a positive control. Cytoplasmic proteins were extracted from the cells according to a conventional method as described in Tagaya et al. 1996 EMBO J. 15:4928-39. […]

[3] = tested on: IL-2 mediated phosphorylation of STAT-5; test: IL-2 mediated phosphorylation of STAT5 in CTLL-2 cells (immunoblot); format: cell-based, murine; settings: anti-phospho-STAT5 immunoblot
Text: as §5, §6

[4] = tested on: IL-21 mediated phosphorylation of STAT-3; test: IL-21 mediated phosphorylation of STAT3 in NK92 cells (immunoblot); format: cell-based, human; settings: anti-phospho-STAT3 immunoblot
Text: as §5, §6

[5] = tested on: IL-15 induction of IFNγ gene transcription; test: IL-15 induced IFNγ gene transcription in NK92 cells (qPCR); format: cell-based; settings: peptide 10 minutes pre-treatment, human IL-15 1 ng/mL for 2 hours
Text: (§7) The cytokine interferon gamma (IFNγ) represents a useful marker for inflammation in multiple human immune-inflammatory disease states. Transcription of the IFNγ gene is inducible by IL-15, IL-21, the non-γc cytokine IL-12, and other select cytokines. The ability to block cytokine-induced IFNγ transcription therefore represents another useful approach to determine the biological activity of custom peptide derivatives.
(§8) NK92 cells were brought to a quiescent state by PBS washing and culturing in the absence of cytokine for 48 hours. Cells were treated with SEQ ID NO: […] for 10 minutes, and then stimulated with human IL-15, IL-21, or IL-12 at 1 ng/mL for 2 hours. A cytokine only treatment group, and another treatment group where the NK92 cells were left untreated by peptide, and not stimulated by cytokine were also included as control conditions. Following incubation with peptide and cytokine, cells were harvested, RNA was isolated for cDNA generation and used as template for qPCR analysis to quantify IFNγ transcripts.

[6] = tested on: IL-21 induction of IFNγ gene transcription; test: IL-21 induced IFNγ gene transcription in NK92 cells (qPCR); format: cell-based; settings: peptide 10 minutes pre-treatment, human IL-21 1 ng/mL for 2 hours
Text: as §7, §8

[7] = tested on: IL-12 induction of IFNγ gene transcription; test: IL-12 induced IFNγ gene transcription in NK92 cells (qPCR); format: cell-based; settings: peptide 10 minutes pre-treatment, human IL-12 1 ng/mL for 2 hours
Text: as §7, §8

[8] = tested on: T-cells in HAM/TSP culture; test: Ex vivo spontaneous T-cell proliferation assay using HAM/TSP patient PBMC; format: cell-based, human; settings: HAM/TSP peripheral blood ex vivo culture
Procedure: Proliferation assays were performed on HAM/TSP patient blood samples with and without the addition of BNZ-γ. These assays evaluated the ability of BNZ-γ to block the function of cytokines, such as IL-2 and IL-15, present in the ex vivo HAM/TSP patient blood culture and prevent spontaneous T-cell proliferation in these samples.
In an ex vivo spontaneous T-cell proliferation assay, PBMC from HAM/TSP patient was cultured at 1×10(6) cells per well of a 96 well plate in RPMI-10% FCS. Increasing concentrations of BNZ-γ peptide were added to each well. As a control, an irrelevant peptide was used in similar fashion. The cells were incubated in a 37° C. CO2 incubator for 3, 4, and 6 days. The amount of 1 uCi of ^3H-thymidine was added to the cells. After an additional 6 hour incubation, cells were harvested their proliferation rate was measured. As indicated in FIG. 5A-FIG. 5D, BNZ-γ peptide inhibits the spontaneous proliferation of T-cells in HAM/TSP culture at a concentration of about 1 ug/ml.
Other immunological markers were additionally measured in this assay. The percentage of the viral specific CD8 cells was measured during the ex vivo culture using viral protein tetramers. The population of CD4+CD25+ cells, a marker of T-cell activation, as well as Ki67 staining, a marker of T-cell proliferation, was monitored in a flow cytometry assay.

[9] = peptide 0-0.1 μM (>99% purity), cytokine at 70% proliferation level

CC[C@H](C)[C@H](NC(=O)[C@]1(C)CCCC=CCCC[C@](C)(NC(=O)[C@@H](Cc2c[nH]cn2)NC(=O)[C@@]2(C)CCCC=CCCC[C@](C)(NC(=O)[C@@H](Cc3ccccc3)NC(=O)[C@@H](CCC(=O)O)NC(=O)[C@@H](CCCCN)NC(=O)[C@H]3CCCN3C(=O)[C@@H](CCCNC(=N)N)NC(=O)[C@@H](CCCNC(=N)N)NC(=O)[C@@H](CCCNC(=N)N)NC(=O)[C@H](N)CCCNC(=N)N)C(=O)N[C@@H](CCC(=O)O)C(=O)N[C@@H](CCCNC(=N)N)C(=O)N[C@@H](Cc3ccccc3)C(=O)N2)C(=O)N[C@@H](C(C)C)C(=O)N[C@@H](CCC(N)=O)C(=O)N[C@@H](CC(C)C)C(=O)N1)C(=O)N[C@H](Cc1c[nH]cn1)C(=O)N[C@H](CCC(N)=O)C(=O)N[C@H](CO)C(=O)N[C@H](CC(C)C)C(=O)N[C@H](CO)C(=O)O [SEQ ID NO: 57, {dR}-{dR}-{dR}-{dR}-{dP}-{dK}-{dE}-{dF}-{S5Ala1}-E-R-F-{R5Ala1}-{dH}-{S5Ala2}-V-Q-L-{S5Ala2}-I-{dH}-{dQ}-{dS}-{dL}-{dS}] (H-[dR][dR][dR][dR][dP][dK][dE][dF][S5]ERF[R5][dH][S5]VQL[S5]I[dH][dQ][dS][dL][dS]-OH; staple 9-13, 15-19; N-terminus and C-terminus assumed)
percentage of undigested peptide present in simulated intestinal fluid, compared to the unmodified peptide [1]: greatly enhanced

PKEFLERFVHLVQMFIHQSLS (PKEFLERFVHLVQMFIHQSLS) [SEQ ID NO: 3, 21-mer composite peptide of γc-cytokine D-helix regions]
cellular proliferation stimulated by IL-2 (dose response) (IL-2; peptide 0-10 μM (>99% purity), cytokine at 70% proliferation level): not affected
cellular proliferation stimulated by IL-2 (inhibitory specificity) (IL-2; peptide 2.5 μM (70% purity)): not affected
activity of IL-15 (dose response) (IL-15; [9]): potently inhibited
activity of IL-15 (inhibitory specificity) (IL-15; peptide 2.5 μM (70% purity)): significantly reduced
activity of IL-21 (dose response) (IL-21; [9]): potently inhibited
activity of IL-21 (inhibitory specificity) (IL-21; peptide 2.5 μM (70% purity)): significantly reduced
cellular proliferation stimulated by IL-4 (inhibitory specificity) (IL-4): not affected
cellular proliferation stimulated by IL-9 (inhibitory specificity) (IL-9): not affected
IL-15 mediated phosphorylation of STAT-5 [2]: inhibited
IL-2 mediated phosphorylation of STAT-5 [3]: but not IL-2 mediated phosphorylation of STAT-5
IL-21 mediated phosphorylation of STAT-3 [4]: inhibited

{S5Ala1}-P-K-E-{S5Ala1}-L-E-R-F-V-H-L-V-Q-K-{S5Ala2}-I-H-Q-{S5Ala2}-L-S [SEQ ID NO: 83]
IL-15 induction of IFNγ gene transcription [5]: inhibition
IL-21 induction of IFNγ gene transcription [6]: inhibition
non-γc cytokine IL-12 induction of IFNγ gene transcription [7]: did not block

IKEFLQRFIHIVQSIINTS [BNZ-γ, I-K-E-F-L-Q-R-F-I-H-I-V-Q-S-I-I-N-T-S]
percent of live cells by Guava staining [8]: not impacted
